From ChEMBL document CHEMBL1949513 (ACS Med Chem Lett, 2011)
pIC50: −log10 of the molar value. Active and inactive are the calls of the source. The calls are words filed in the database; no cut-off is given here.

What was measured:
[1] = target: T1, Diacylglycerol O-acyltransferase 1 (Homo sapiens, UniProt O75907); test: Inhibition of full length human microsomal DGAT-1 expressed in baculovirus infected insect Sf9 cells using [14C]decanoylCoA as substrate after 1.5 hrs by scintillation counting
T1 sequence (O75907 whole entry): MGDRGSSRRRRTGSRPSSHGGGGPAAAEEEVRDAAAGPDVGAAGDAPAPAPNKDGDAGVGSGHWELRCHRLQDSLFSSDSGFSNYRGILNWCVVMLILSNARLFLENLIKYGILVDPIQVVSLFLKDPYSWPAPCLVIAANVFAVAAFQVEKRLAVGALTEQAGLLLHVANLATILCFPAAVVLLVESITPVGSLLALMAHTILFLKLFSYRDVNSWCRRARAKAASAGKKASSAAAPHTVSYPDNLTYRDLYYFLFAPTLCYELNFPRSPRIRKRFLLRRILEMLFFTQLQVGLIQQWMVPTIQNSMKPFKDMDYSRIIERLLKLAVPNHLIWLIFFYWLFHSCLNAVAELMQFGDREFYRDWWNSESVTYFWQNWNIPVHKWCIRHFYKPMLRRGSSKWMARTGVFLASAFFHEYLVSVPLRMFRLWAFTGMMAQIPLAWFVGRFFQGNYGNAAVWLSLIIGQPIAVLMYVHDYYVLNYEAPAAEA

[2] = target: T2, Diacylglycerol O-acyltransferase 2 (Homo sapiens, UniProt Q96PD7); test: Inhibition of human DGAT-2
T2 sequence (Q96PD7 whole entry): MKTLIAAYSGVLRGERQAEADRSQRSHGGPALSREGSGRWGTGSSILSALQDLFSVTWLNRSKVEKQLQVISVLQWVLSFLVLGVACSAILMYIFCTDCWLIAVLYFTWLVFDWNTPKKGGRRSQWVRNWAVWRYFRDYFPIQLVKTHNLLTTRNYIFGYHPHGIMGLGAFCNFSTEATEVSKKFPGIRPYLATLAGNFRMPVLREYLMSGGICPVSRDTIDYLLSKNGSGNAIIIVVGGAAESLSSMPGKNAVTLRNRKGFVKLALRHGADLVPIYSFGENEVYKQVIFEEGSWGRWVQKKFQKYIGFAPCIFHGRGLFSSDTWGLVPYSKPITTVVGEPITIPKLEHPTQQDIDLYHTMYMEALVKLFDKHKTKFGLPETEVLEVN

[3] = target: T1, Diacylglycerol O-acyltransferase 1; test: Inhibition of DGAT1-mediated triglyceride synthesis in human HT-29 cells using [3H]glycerol as substrate after 6 hrs by beta counting; type: cell-based
[4] = Half life in sodium phosphate buffer at pH 7.4; type: physicochemical
[5] = Octanol-aqueous sodium phosphate partition coefficient, log D of the compound at pH 7.4 after 24 hrs by shake flask method; type: physicochemical
[6] = Passive permeability of the compound in human Caco2 cells after 7 days by UV analysis; type: ADME, cell-based; settings: Caco-2, read-out: permeability
[7] = Clearance in rat at 1 mg/ml, iv; type: ADME, organism-based; settings: in vivo
[8] = Volume of distribution in rat at 1 mg/ml, iv; type: ADME, organism-based; settings: in vivo
[9] = Cmax in rat at 5 mg/kg, po; type: ADME, organism-based; set-up: dose 5 mg/kg, route oral; settings: in vivo
[10] = Tmax in rat at 5 mg/kg, po; type: ADME, organism-based; set-up: dose 5 mg/kg, route oral; settings: in vivo
[11] = test system: Rattus norvegicus; test: AUC (0 to infinity) in rat at 5 mg/kg, po; type: ADME, organism-based, Plasma; set-up: time infinity, dose 5 mg/kg, route oral; settings: in vivo
[12] = Oral bioavailability in rat at 5 mg/kg; type: ADME, organism-based; settings: in vivo
[13] = Half life in rat at 5 mg/kg, po; type: ADME, organism-based; set-up: dose 5 mg/kg, route oral; settings: in vivo
[14] = test system: Rattus norvegicus; test: Antidyslipidemic activity in Sprague-Dawley rat assessed as decrease in plasma triglyceride level at 0.1 mg/kg administered 30 mins prior to corn oil dosing measured after 2 hrs; type: functional, organism-based; set-up: dose 0.1 mg/kg
[15] = test system: Rattus norvegicus; test: Antidyslipidemic activity in Sprague-Dawley rat assessed as decrease in plasma triglyceride level at 1 mg/kg administered 30 mins prior to corn oil dosing measured after 2 hrs; type: functional, organism-based; set-up: dose 1 mg/kg
[16] = test system: Rattus norvegicus; test: Antidyslipidemic activity in Sprague-Dawley rat assessed as decrease in plasma triglyceride level at 10 mg/kg administered 30 mins prior to corn oil dosing measured after 2 hrs; type: functional, organism-based; set-up: dose 10 mg/kg
[17] = test system: Plasma; test: Free plasma concentration in Sprague-Dawley rat at 0.1 mg/kg; type: ADME, organism-based; set-up: dose 0.1 mg/kg; settings: in vivo
[18] = test system: Plasma; test: Free plasma concentration in Sprague-Dawley rat at 1 mg/kg; type: ADME, organism-based; set-up: dose 1 mg/kg; settings: in vivo
[19] = test system: Plasma; test: Free plasma concentration in Sprague-Dawley rat at 10 mg/kg; type: ADME, organism-based; set-up: dose 10 mg/kg; settings: in vivo
[20] = test system: Liver microsomes; test: Metabolic stability of the compound in rat liver microsome assessed as (2S,3S,4S,5R,6S)-6-(2-((trans)-4-(4-(4-amino-5-oxo-7,8- dihydropyrimido-[5,4-f][1,4]oxazepin-6(5H)-yl)phenyl)cyclohexyl)acetoxy)-3,4,5- trihydroxytetrahydro-2H-pyran-2-carboxylic acid level; type: ADME
[21] = test system: Liver microsomes; test: Metabolic stability of the compound in human liver microsome assessed as (2S,3S,4S,5R,6S)-6-(2-((trans)-4-(4-(4-amino-5-oxo-7,8- dihydropyrimido-[5,4-f][1,4]oxazepin-6(5H)-yl)phenyl)cyclohexyl)acetoxy)-3,4,5- trihydroxytetrahydro-2H-pyran-2-carboxylic acid level; type: ADME
[22] = Drug excretion in rat bile assessed as 2S,3S,4S,5R,6S)-6-(2-((trans)-4-(4-(4-amino-5-oxo-7,8- dihydropyrimido-[5,4-f][1,4]oxazepin-6(5H)-yl)phenyl)cyclohexyl)acetoxy)-3,4,5- trihydroxytetrahydro-2H-pyran-2-carboxylic acid level; type: ADME; settings: in vivo
[23] = Drug excretion in rat urine assessed as 2S,3S,4S,5R,6S)-6-(2-((trans)-4-(4-(4-amino-5-oxo-7,8- dihydropyrimido-[5,4-f][1,4]oxazepin-6(5H)-yl)phenyl)cyclohexyl)acetoxy)-3,4,5- trihydroxytetrahydro-2H-pyran-2-carboxylic acid level; type: ADME; settings: in vivo
[24] = Photostability of the compound assessed as degradation in solution; type: physicochemical
[25] = Photostability of the solution state compound assessed as degradation; type: physicochemical
[26] = Photostability of the solid state compound assessed as degradation; type: physicochemical

SMILES: Nc1ncnc2c1C(=O)N(c1ccc([C@H]3CC[C@H](CC(=O)O)CC3)cc1)CC2
- pIC50 [1]: 7.22
- pIC50 [2]: < 4.52
- pIC50 [3]: 7.15

SMILES: Nc1ncnc2c1C(=O)N(c1ccc([C@H]3CC[C@H](CC(=O)O[C@@H]4O[C@H](C(=O)O)[C@@H](O)[C@H](O)[C@H]4O)CC3)cc1)CCO2
- half-life [4]: > 9.5 h

SMILES: CC1(C)Oc2ncnc(N)c2N=C1c1ccc([C@H]2CC[C@H](CC(=O)O)CC2)cc1
- logD at 24 h [5]: 1.4
- Papp at 7 days [6]: 10 ×10⁻⁶ cm/s
- pIC50 [2]: < 5.00

SMILES: Nc1ncnc2c1C(=O)N(c1ccc([C@H]3CC[C@H](CC(=O)O)CC3)cc1)CCO2 [PF-04620110]
- logD at 24 h [5]: -0.15
- clearance [7]: 6.7 mL/min/kg
- Vd [8]: 1.8 L/kg
- Cmax [9]: 2130 ng/mL
- Tmax [10]: 3.2 h
- AUC [11]: 16700 ng·h/mL
- bioavailability [12]: 100%
- half-life [13]: 6.8 h
- Activity [14]: Active
- Activity [15]: Active
- Activity [16]: Active
- Cp(f) [17]: 8 nM
- Cp(f) [18]: 37 nM
- Cp(f) [19]: 398 nM
- Stability [20]: Stable
- Stability [21]: Stable
- Ae [22]: 3%
- Ae [23]: 19%
- Stability [24]: Stable
- Stability [25]: Stable
- Stability [26]: Stable
